By IC50 is commonly meant the concentration that inhibits the measured activity by half.

Structures are written as SMILES. Like-named read-outs stand apart in the source and are kept apart here.

Type in all cases: biochemical
For one assay, the target named is PLK1 (Homo sapiens, UniProt P53350). Put plainly: PLK TR-FRET peptide assay, PLK1. The note with it: GST-PLK1, 60 min reaction.
For the next assay, the target named is PLK3 (Homo sapiens, UniProt Q9H4B4). Put plainly: PLK TR-FRET peptide assay, PLK3. To be noted: GST-PLK3, 15 min reaction, read-out: Plk3 IC50. For orientation: In TR-FRET formats the signal depends on donor and acceptor labels being close together.
PLK3, sequence (Q9H4B4 whole entry): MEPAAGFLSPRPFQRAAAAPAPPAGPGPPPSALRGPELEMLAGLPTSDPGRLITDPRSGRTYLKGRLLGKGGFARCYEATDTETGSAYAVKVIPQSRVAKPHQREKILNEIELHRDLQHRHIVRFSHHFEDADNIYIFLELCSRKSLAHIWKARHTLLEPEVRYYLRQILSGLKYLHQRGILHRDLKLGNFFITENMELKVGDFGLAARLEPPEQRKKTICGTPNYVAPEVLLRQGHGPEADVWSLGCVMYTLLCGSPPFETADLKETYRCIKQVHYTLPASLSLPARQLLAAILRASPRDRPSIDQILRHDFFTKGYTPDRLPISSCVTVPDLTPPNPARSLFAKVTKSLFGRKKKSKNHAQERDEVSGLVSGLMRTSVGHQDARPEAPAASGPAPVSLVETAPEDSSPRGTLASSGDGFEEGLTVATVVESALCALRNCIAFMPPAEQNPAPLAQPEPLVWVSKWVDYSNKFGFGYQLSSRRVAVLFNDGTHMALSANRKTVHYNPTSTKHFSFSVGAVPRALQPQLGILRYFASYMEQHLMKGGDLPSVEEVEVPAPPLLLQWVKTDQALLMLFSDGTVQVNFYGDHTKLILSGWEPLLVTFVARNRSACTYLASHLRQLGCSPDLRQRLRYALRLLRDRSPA
In a further assay the target is PLK2 (Homo sapiens, UniProt Q9NYY3). Put plainly: PLK TR-FRET peptide assay, PLK2. To be noted: for IC50: read-out: Plk2 IC50; for relative PLK2 activity of the enantiomers: compared with the opposite enantiomer.
PLK2, sequence (Q9NYY3 whole entry): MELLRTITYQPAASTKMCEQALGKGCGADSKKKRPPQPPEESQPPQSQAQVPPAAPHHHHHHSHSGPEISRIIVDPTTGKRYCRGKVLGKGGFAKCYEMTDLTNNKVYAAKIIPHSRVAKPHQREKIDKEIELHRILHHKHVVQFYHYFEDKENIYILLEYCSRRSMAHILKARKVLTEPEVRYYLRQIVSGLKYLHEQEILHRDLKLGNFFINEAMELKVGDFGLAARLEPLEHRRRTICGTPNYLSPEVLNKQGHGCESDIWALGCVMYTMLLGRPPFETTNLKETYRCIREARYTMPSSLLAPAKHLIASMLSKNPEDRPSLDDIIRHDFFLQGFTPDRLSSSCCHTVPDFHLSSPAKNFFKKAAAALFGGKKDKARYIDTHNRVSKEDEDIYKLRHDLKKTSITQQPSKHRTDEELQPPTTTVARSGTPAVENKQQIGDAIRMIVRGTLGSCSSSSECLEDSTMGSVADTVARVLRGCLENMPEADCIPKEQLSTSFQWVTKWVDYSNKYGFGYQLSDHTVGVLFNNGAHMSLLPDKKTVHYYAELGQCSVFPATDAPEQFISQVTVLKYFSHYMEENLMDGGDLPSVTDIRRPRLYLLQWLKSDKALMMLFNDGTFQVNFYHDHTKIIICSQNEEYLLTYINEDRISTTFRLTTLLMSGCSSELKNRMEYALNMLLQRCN
[1] abbreviates: PLK TR-FRET peptide assay, GST-PLK2, 60 min reaction.

PLK1, sequence (P53350 whole entry): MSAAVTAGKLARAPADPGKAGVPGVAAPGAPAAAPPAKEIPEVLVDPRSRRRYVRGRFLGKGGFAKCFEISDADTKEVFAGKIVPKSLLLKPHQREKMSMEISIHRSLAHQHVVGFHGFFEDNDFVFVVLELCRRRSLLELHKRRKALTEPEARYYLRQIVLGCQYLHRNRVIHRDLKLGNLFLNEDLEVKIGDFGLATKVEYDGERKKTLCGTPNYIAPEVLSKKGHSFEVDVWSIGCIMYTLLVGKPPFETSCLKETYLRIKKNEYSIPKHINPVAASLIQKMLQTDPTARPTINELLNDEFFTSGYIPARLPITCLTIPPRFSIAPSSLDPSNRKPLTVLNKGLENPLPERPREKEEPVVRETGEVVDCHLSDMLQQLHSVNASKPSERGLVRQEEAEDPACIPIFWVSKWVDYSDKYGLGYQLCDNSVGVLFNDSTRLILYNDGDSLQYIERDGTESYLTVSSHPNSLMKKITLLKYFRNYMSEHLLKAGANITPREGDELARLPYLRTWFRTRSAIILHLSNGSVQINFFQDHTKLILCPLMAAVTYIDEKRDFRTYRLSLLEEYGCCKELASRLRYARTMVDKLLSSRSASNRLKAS

On to `CC[C@@]12CCCN1c1nc(-n3ccnc3-c3cccc(-n4cncn4)c3)ncc1N(C)C2=O` [Example 273, (S)-2-(2-(3-(1H-1,2,4-triazol-1-yl)phenyl)-1H-imidazol-1-yl)-6a-ethyl-5-methyl-6a,7,8,9-tetrahydropyrrolo[2,1-h]pteridin-6(5H)-one], for which the concentration for half-maximal inhibition (IC50) is 10 to 50 µM against PLK1, greater than 50 µM at PLK3 and less than 1 µM on PLK2.

In the case of `CC(C)N1c2nc(-n3ccnc3-c3ccccc3)ncc2N(C)C(=O)C12CCC2` [Example 289, 8′-isopropyl-5′-methyl-2′-(2-phenyl-1H-imidazol-1-yl)-5′H-Spiro[cyclobutane-1,7′-pteridin]-6′(8′H)-one], the results for the 50% inhibitory concentration (IC50) on PLK1, at PLK3 and on PLK2 (setting [1]) were 1 to 10 µM, 10 to 50 µM and less than 1 µM, respectively.

With `CC[C@@H]1C(=O)N(C)c2cnc(-c3ccncc3NC(C)=O)nc2N1C(C)C` [Example 118, (R)—N-(4-(7-ethyl-8-isopropyl-5-methyl-6-oxo-5,6,7,8-tetrahydropteridin-2-yl)pyridin-3-yl)acetamide], the results for the IC50 against PLK1, on PLK3 and on PLK2 (setting [1]) were greater than 50 µM, greater than 50 µM and 1 to 10 µM, respectively.

In the case of `[2H]C([2H])([2H])N1C(=O)[C@@H](C([2H])([2H])C([2H])([2H])[2H])N(C([2H])(C([2H])([2H])[2H])C([2H])([2H])[2H])c2nc(-n3ccnc3-c3cccc(F)c3)ncc21` [Example 202, (R)-7-perdeuteroethyl-2-(2-(3-fluorophenyl)-1H-imidazol-1-yl)-8-perdeuteroisopropyl-5-trideuteromethyl-7,8-dihydropteridin-6(5H)-one], the IC50 on PLK1 is less than 1 µM; on PLK3, 1 to 10 µM; on PLK2 (setting [1]), less than 1 µM. The “relative PLK2 activity of the enantiomers” value on PLK2 is recorded as “more active compound”.

As to `CC[C@@]12CCCN1c1nc(-n3ccnc3-c3ccc(Cl)s3)ncc1N(C)C2=O` [Example 218, (S)-2-(2-(5-chlorothiophen-2-yl)-1H-imidazol-1-yl)-6a-ethyl-5-methyl-6a,7,8,9-tetrahydropyrrolo[2,1-h]pteridin-6(5H)-one], the IC50 at PLK1 is 10 to 50 µM; on PLK3, 10 to 50 µM; at PLK2 (setting [1]), less than 1 µM.

In the case of `CC[C@@H]1C(=O)N(C)c2cnc(-c3ccncc3CNS(=O)(=O)c3ccccc3)nc2N1C1CCCC1` [Example 125, (R)—N-((4-(8-cyclopentyl-7-ethyl-5-methyl-6-oxo-5,6,7,8-tetrahydropteridin-2-yl)pyridin-3-yl)methyl)benzenesulfonamide], the IC50 was in the range of 10 to 50 µM against PLK1, 10 to 50 µM at PLK3 and 1 to 10 µM at PLK2 (setting [1]).

On to `CC[C@@H]1C(=O)N(C)c2cnc(-c3nccnc3-c3ccc(F)cc3)nc2N1C(C)C` [Example 177, (R)-7-ethyl-2-(3-(4-fluorophenyl)pyrazin-2-yl)-8-isopropyl-5-methyl-7,8-dihydropteridin-6(5H)-one], for which the values for the IC50 on PLK1, at PLK3 and at PLK2 (setting [1]) were 1 to 10 µM, 1 to 10 µM and less than 1 µM, respectively.

For `CC[C@@H]1C(=O)N(C)c2cnc(-n3ccnc3-c3cncnc3)nc2N1C1CC1` [Example 143, (R)-8-cyclopropyl-7-ethyl-5-methyl-2-(2-(pyrimidin-5-yl)-1H-imidazol-1-yl)-7,8-dihydropteridin-6(5H)-one], the IC50 on PLK1 was in the range of 10 to 50 µM; at PLK3 it was 10 to 50 µM; at PLK2 (setting [1]), 1 to 10 µM.

Turning to `CC[C@@H]1C(=O)N(C)c2cnc(-c3cncs3)nc2N1C1CCCC1` [Example 355, (R)-8-cyclopentyl-7-ethyl-5-methyl-2-(thiazol-5-yl)-7,8-dihydropteridin-6(5H)-one], the values for the IC50 at PLK1, on PLK3 and on PLK2 (setting [1]) were less than 1 µM, 1 to 10 µM and less than 1 µM, respectively.

As for `CC[C@@H]1CC[C@@]2(CC)C(=O)N(C)c3cnc(-n4ccnc4)nc3N12` [Example 334, (6aS,9R)-6a,9-diethyl-2-(1H-imidazol-1-yl)-5-methyl-6a,7,8,9-tetrahydropyrrolo[2,1-h]pteridin-6(5H)-one], the IC50 against PLK1 lay within 1 to 10 µM; at PLK3 it was 10 to 50 µM; at PLK2 (setting [1]), 1 to 10 µM.

`CC[C@@H]1C(=O)N(C)c2cnc(-c3sc(C#N)nc3-c3ccc(F)cc3)nc2N1C(C)C` [Example 354, (R)-5-(7-ethyl-8-isopropyl-5-methyl-6-oxo-5,6,7,8-tetrahydropteridin-2-yl)-4-(4-fluorophenyl)thiazole-2-carbonitrile]: the results for the IC50 on PLK1, at PLK3 and on PLK2 (setting [1]) were 1 to 10 µM, less than 1 µM and less than 1 µM, respectively.

On to `CC[C@@H]1CC[C@@]2(CC)C(=O)N(C)c3cnc(-c4cn[nH]c4-c4nccs4)nc3N12` [Example 340, (6aS,9R)-6a,9-diethyl-5-methyl-2-(5-(thiazol-2-yl)-1H-pyrazol-4-yl)-6a,7,8,9-tetrahydropyrrolo[2,1-h]pteridin-6(5H)-one], for which the figures for the IC50 against PLK1, at PLK3 and at PLK2 (setting [1]) were less than 1 µM, 1 to 10 µM and less than 1 µM, respectively.

Consider `CCC12CCCCN1c1nc(-n3ccnc3-c3cccc(F)c3)ncc1N(C)C2=O` (racemic) [Example 239, (+/−) 6a-ethyl-2-(2-(3-fluorophenyl)-1H-imidazol-1-yl)-5-methyl-7,8,9,10-tetrahydro-5H-pyrido[2,1-h]pteridin-6(6aH)-one], for which the half-maximal inhibitory concentration (IC50) against PLK1 was 1 to 10 µM; on PLK3 it was 10 to 50 µM; at PLK2 (setting [1]) it was less than 1 µM.

Turning to `CC[C@@]12CCCCN1c1nc(-n3ccnc3-c3ccccc3)ncc1N(C)C2=O` [Example 262, (S)-6a-ethyl-5-methyl-2-(2-phenyl-1H-imidazol-1-yl)-7,8,9,10-tetrahydro-5H-pyrido[2,1-h]pteridin-6(6aH)-one], the half-maximal inhibitory concentration (IC50) on PLK1 is 1 to 10 µM; at PLK3, 1 to 10 µM; at PLK2 (setting [1]), less than 1 µM. In addition, the “relative PLK2 activity of the enantiomers” value on PLK2 is recorded as “more active compound”.

Consider `CC[C@@H]1C(=O)N(C)c2cnc(-n3ccnc3-c3nccs3)nc2N1C1CCCC1` [Example 74, (R)-8-cyclopentyl-7-ethyl-5-methyl-2-(2-(thiazol-2-yl)-1H-imidazol-1-yl)-7,8-dihydropteridin-6(5H)-one], for which the IC50 at PLK1, at PLK3 and on PLK2 (setting [1]) was less than 1 µM in each case.

Regarding `CC[C@@H]1C(=O)N(C)c2cnc(-n3ccnc3-c3ccc(F)cc3)nc2N1CC1CC1` [Example 322, (R)-8-(cyclopropylmethyl)-7-ethyl-2-(2-(4-fluorophenyl)-1H-imidazol-1-yl)-5-methyl-7,8-dihydropteridin-6(5H)-one], the values for the IC50 against PLK1, at PLK3 and on PLK2 (setting [1]) were 1 to 10 µM, 1 to 10 µM and less than 1 µM, respectively.

As to `CCC12CCCCCN1c1nc(-n3nccc3-c3ccccc3)ncc1N(C)C2=O` (centres unmarked) [Example 209, 6a-ethyl-5-methyl-2-(5-phenyl-1H-pyrazol-1-yl)-6a,7,8,9,10,11-hexahydroazepino[2,1-h]pteridin-6(5H)-one], the IC50 lay within 10 to 50 µM against PLK1, 10 to 50 µM on PLK3 and 1 to 10 µM on PLK2 (setting [1]).

On to `CC[C@@H]1C(=O)N(C)c2cnc(-c3cn[nH]c3-c3nccs3)nc2N1C1CC(F)(F)C1` [Example 353, (R)-8-(3,3-difluorocyclobutyl)-7-ethyl-5-methyl-2-(5-(thiazol-2-yl)-1H-pyrazol-4-yl)-7,8-dihydropteridin-6(5H)-one], for which the figures for the 50% inhibitory concentration (IC50) at PLK1, at PLK3 and on PLK2 (setting [1]) were 1 to 10 µM, 1 to 10 µM and less than 1 µM, respectively.

The record behind these values is patent publication US8541418B2, “Inhibitors of polo-like kinase” (Elan Pharmaceutical, Inc., priority 2009, dated 2013).
